These results are taken from paper PMC8708274, “Unveiling the Membrane and Cell Wall Action of Antimicrobial Cyclic Lipopeptides: Modulation of the Spectrum of Activity” (Pharmaceutics, 2021).

Like-named read-outs stand apart in the source and are kept apart here. Positions of bridges follow the written chain, without caps; N, C: chain ends. Non-standard residues stand in square brackets, D forms with d. Residues, ends and D or L forms follow the SMILES beside them. No end group written: not given here. *: point of attachment. Lauroyl = CCCCCCCCCCCC(=O)*; Decanoyl = CCCCCCCCCC(=O)*; X1 = CC[C@H](C)CCCCC(=O)*; Nle = CCCC[C@H](N)C(=O)O; Dab = NCC[C@H](N)C(=O)O

In series [1] the test system is Escherichia coli ATTC 25922. The series is classed as cell-based. The settings on record: broth microdilution, MHB, overnight 37 °C, triplicate. The procedure: (§1) The minimal peptide concentration required to prevent the growth of a given test organism was determined after incubation overnight at 37 °C and was defined as the MIC. Activity was determined in representative bacteria, Escherichia coli ATTC 25922, Pseudomonas aeruginosa ATTC 27853, and Staphylococcus aureus ATTC 25923, using the broth microdilution method. Serial-two-fold dilutions of peptide (from 0.06 to 32 μg/mL) were performed in Mueller–Hinton broth (MHB) culture medium in sterile 96-well polypropylene microtiter plates inoculated with a final concentration of 5 × 10^5 CFU·mL^−1 of bacteria in each well. Bacteria were in the pre-exponential phase. Each determination was done by triplicate. In order to be considered acceptable, the three MIC results have to differ in only in one well, and the result was always given as the higher of the three. Drug-free and microorganism-free wells were used as positive and negative controls, respectively. Bacterial growth was visually determined on the basis of turbidity.

The test system of series [2] is Pseudomonas aeruginosa ATTC 27853. The series is classed as cell-based. Conditions: broth microdilution, MHB, overnight 37 °C, triplicate. On the procedure:
as §1

The subject of series [3] is Staphylococcus aureus ATTC 25923. The series is classed as cell-based. Conditions: broth microdilution, MHB, overnight 37 °C, triplicate. On the procedure: as §1
In series [4] the test system is fresh rabbit erythrocytes. Description: Hemolysis assay. The format is cell-based. Conditions: 335 μM lipopeptide, 1 h at 37 °C, 10 mM Tris 80 mM NaCl pH 7.4, absorbance 540 nm, average of three independent experiments. The procedure:
Hemolytic activity was evaluated on fresh rabbit erythrocytes collected in EDTA collection tubes, as previously described. Briefly, an erythrocite suspension in buffer (10 mM Tris, 80 mM NaCl pH 7.4) was obtained by centrifugation (three times, 10 min at 4000 rpm) and adjusted at an optical density of 1 at 540 nm. Aliquots of 200 µL were incubated for 1 h at 37 °C with the different lipopeptides in 96-well polypropylene microtiter plates and centrifuged (15 min, 5000 rpm). Lipopetide-induced hemolysis was determined by measuring the absorbance at 540 nm of released hemoglobin (Asample) in the supernatant. Each determination was done by triplicate, and as negative and positive controls, erythrocytes in buffer (A0%) and in distilled water (A100%) were employed, respectively. Hemolysis was calculated according the following equation: % hemolysis = 100 · (Asample − A0%/A100% − A0%).

The nature of series [5]: Kinetics of insertion into monolayers. The series is classed as binding, Salmonella enterica serotype Minnesota Re 595. The settings on record: initial pressure 32 mN·m^−1, peptide 0.48 μM, 25 min after injection, 10 mM Tris pH 7.4, 25 °C, average of three independent experiments (error < 10%). The procedure:
(§2) Monolayer studies were performed at room temperature (25 °C) on a monolayer system (NIMA Technology, Coventry, UK) by using a cylindrical PTFE (Teflon®, Wilmington, DE, USA) trough (5 cm diameter) containing a continuously stirred aqueous phase (12 mL, 10 mM Tris pH 7.4) and a Wilhelmy platinum plate connected to an electrobalance. The system was enclosed in a Plexiglass box to reduce surface contamination, and before each run, the plate and the trough were cleaned with hot water at >70 °C to avoid carryover of lipid or peptide. Monolayers of POPG, POPE/POPG (6:4), POPC, or LPS were formed by applying small drops of the lipid stock solutions in CHCl3 on the aqueous subphase with a microsyringe (Hamilton Co., Reno, NV, USA) to achieve a surface pressure of 32 mN·m^−1. After 10 min, allowing for solvent evaporation, a known aliquot of peptide was added without disturbance of the monolayer via an inlet port, and the surface pressure was continuously monitored.

The nature of series [6]: Kinetics of insertion into monolayers. The series is classed as binding. Conditions: 25 min after injection, 10 mM Tris pH 7.4, 25 °C, average of three independent experiments (error < 10%); for Increase in surface pressure (Δπ), POPE/POPG: POPE/POPG 6:4, initial pressure 32 mN·m^−1, peptide 0.48 μM; for Increase in surface pressure (Δπ), POPC / Increase in surface pressure (Δπ), POPG: initial pressure 32 mN·m^−1, peptide 0.48 μM. On the procedure:
as §2

For the next series, the system named is P. aeruginosa. Description: Transmission electron microscopy of treated bacteria. Conditions: 1xMIC, 2 h, room temperature, tryptone water. The series is classed as cell-based, Pseudomonas aeruginosa. The procedure:
(§3) Then, 500 µL of this culture were added to 50 mL of tryptone water for a concentration of ≈10^8 bacteria·mL^−1. Aliquots of 10 mL were incubated with the lipopeptide at the desired concentration for 2 h at room temperature, and bacterial cells were collected by centrifugation (12,857 g, 20 min). Samples were fixed with 2.5% glutaraldehyde in phosphate buffer for 2 h at 4 °C, washed with the same buffer, and post fixed with 1% osmium tetroxide in buffer containing 0.8% potassium ferricyanide at 4 °C. Then, the samples were dehydrated for 1 h in acetone, infiltrated in a graded series of Epon resin (Ted pella, Inc., Redding, CA, USA) during 2 days, and finally embedded in fresh Epon resin and polymerized at 60 °C during 48 h. Ultrathin sections were obtained using a Leica Ultracut UCT ultramicrotome (Leica, Vienna, Austria) and mounted on Formvar-coated copper grids. Sections were stained with 2% aqueous uranyl acetate and lead citrate and examined in a JEM-1010 electron microscope (Jeol, Tokyo, Japan).

For a further series, the system named is E. coli. Described as above. The format is cell-based, Escherichia coli. Conditions: 1xMIC, 2 h, room temperature, tryptone water. The procedure: as §3
For a further series, the system named is S. aureus. Described as above. The settings on record: 1xMIC, 120 min, tryptone water. The series is classed as cell-based, Staphylococcus aureus. The procedure: as §3
Series [7] concerns Escherichia coli ATTC 25922. Conditions: cited from earlier work. The procedure: Table 1 Sequences and antimicrobial activities of the synthesized peptides determined as minimal inhibitory concentration (MIC) calculated for different bacteria strains. | column: MIC/µg mL^−1 (µM) / EC ^1 || Figure 3 Comparative TEM micrographs of P. aeruginosa (left) and E. coli (right). Untreated bacteria (a,b); bacteria treated with polymyxin analogues at 1xMIC: P. aeruginosa with spB-3 (4 μg·mL^−1) (c), or with of spE-10 (1 μg·mL^−1) (e); E. coli treated with spB-3 (2 μg·mL^−1) (d) or spE-10 (8 μg·mL^−1) (f). Lipopeptides cause the alteration of the membranes, with blebs protruding, loss of membrane, clear cytoplasmic zones, and even ghost cells. Similar results are obtained with natural PxB ((g,h), this last one is adapted from (Rabanal et al. Sci. Rep. 2015).

Series [8] has as its system Pseudomonas aeruginosa ATTC 27853. Conditions: cited from earlier work. On the procedure:
C6 analogues are devoid of antibacterial effect both against Gram-positive and Gram-negative bacteria, with MICs higher than 32 μg·mL^−1. C8 analogues show some activity, especially against P. aeruginosa but not on Gram-positive S. aureus. […] For example, MIC of 4 μg·mL^−1 and 2 μg·mL^−1 against P. aeruginosa for spB-3 and spE-3 respectively are obtained, where ... || Figure 3 Comparative TEM micrographs of P. aeruginosa (left) and E. coli (right). Untreated bacteria (a,b); bacteria treated with polymyxin analogues at 1xMIC: P. aeruginosa with spB-3 (4 μg·mL^−1) (c), or with of spE-10 (1 μg·mL^−1) (e); E. coli treated with spB-3 (2 μg·mL^−1) (d) or spE-10 (8 μg·mL^−1) (f). Lipopeptides cause the alteration of the membranes, with blebs protruding, loss of membrane, clear cytoplasmic zones, and even ghost cells. Similar results are obtained with natural PxB ((g,h), this last one is adapted from (Rabanal et al. Sci. Rep. 2015).

Series [9] relates to Staphylococcus aureus ATTC 25923. The settings on record: cited from earlier work. On the procedure: C6 analogues are devoid of antibacterial effect both against Gram-positive and Gram-negative bacteria, with MICs higher than 32 μg·mL^−1. C8 analogues show some activity, especially against P. aeruginosa but not on Gram-positive S. aureus. […] For example, MIC of 4 μg·mL^−1 and 2 μg·mL^−1 against P. aeruginosa for spB-3 and spE-3 respectively are obtained, where ... || Since some of the polymyxin analogues also have good activities against S. aureus, the effects on the cell morphology of this Gram-positive bacteria were determined.

[10] abbreviates: 5 × 10^5 CFU/mL, higher of the three.
[11] abbreviates: taken from the literature (analogues #37, #38, #39).
[12] abbreviates: value in brackets, taken from the literature.

As to `CC[C@H](C)CCCCC(=O)N[C@@H](CCN)C(=O)N[C@H](C(=O)N[C@@H](CCN)C(=O)N[C@H]1CCNC(=O)[C@H]([C@@H](C)O)NC(=O)[C@H](CCN)NC(=O)[C@H](CCN)NC(=O)[C@H](CC(C)C)NC(=O)[C@@H](Cc2ccccc2)NC(=O)[C@H](CCN)NC1=O)[C@@H](C)O` [PxB, Polymyxin B, reference compound] (X1-[Dab]T[Dab][Dab][Dab][dF]L[Dab][Dab]T; lactam 4-C), the figures for the “MIC EC” value in [1] (setting [10]) and in [1] (value in brackets) were 1 µg/mL and 0.83 µM, respectively. Moreover, the “MIC PA” value in series [2] (setting [10]) came out at 0.5 µg/mL; in [2] (value in brackets), 0.42 µM. For the same compound, the “MIC SA” value was over 32 µg/mL in series [3] (setting [10]) and over 27 µM in [3] (value in brackets). Moreover, the hemolysis in series [4] came out at 18%. Moreover, in series [5], the “Increase in surface pressure (Δπ), LPS” value was 11.4 mN·m^−1. In addition, in [6], the “Increase in surface pressure (Δπ), POPE/POPG” value (shortened to “Increase … (Δπ), POPE/POPG”) was 7.2 mN·m^−1. Besides, the “Increase in surface pressure (Δπ), POPC” value in [6] stood at 1.4 mN·m^−1. Also, in [6], the “Increase in surface pressure (Δπ), POPG” value is given as 5.9 mN·m^−1.

“Decanoyl-[Dab]T[Dab]C[Dab]FL[Dab][Dab]C (disulfide 4-10 (inferred)) [spB-3, the C10 analogue of PxB]”: the “Increase in surface pressure (Δπ), LPS” value in series [5] is 11.0 mN·m^−1. The “Increase … (Δπ), POPE/POPG” value in [6] is reported as 6.0 mN·m^−1. Besides, in series [6], the “Increase in surface pressure (Δπ), POPC” value was 2.0 mN·m^−1. Further, the “Increase in surface pressure (Δπ), POPG” value in series [6] worked out at 6.2 mN·m^−1. Besides, the “ultrastructural effect on P. aeruginosa (TEM)” value with P. aeruginosa is recorded as “formation of blebs that protrude from the outer membrane”. For the same compound, the “ultrastructural effect on E. coli (TEM)” value in the series with E. coli is on record as “extensive bleb formation”. Moreover, the “ultrastructural effect on S. aureus (TEM)” value in the series with S. aureus is “formation of spherical mesosome-like intracellular structures and membranous inclusion bodies together with deformation of the cell envelope”. The “MIC EC” value is 2 µg/mL in [7] (setting [11]) and 1.6 µM in [7] (setting [12]). Also, the “MIC PA” value is 4 µg/mL in series [8] (setting [11]) and 3.2 µM in [8] (setting [12]). The “MIC SA” value in series [9] (setting [11]) was 8 µg/mL; in series [9] (setting [12]), 6.5 µM.

As to “Decanoyl-[Dab]T[Dab]C[Dab]F[Nle][Dab][Dab]C (disulfide 4-10 (inferred)) [spB-7, Series II-PxB analogue, decanoyl, Nle in position 7]”, the “Increase in surface pressure (Δπ), LPS” value in series [5] is 9.3 mN·m^−1. In addition, the “Increase … (Δπ), POPE/POPG” value in [6] is on record as 6.5 mN·m^−1. In addition, in series [6], the “Increase in surface pressure (Δπ), POPC” value turned out to be 2.1 mN·m^−1. Further, the “Increase in surface pressure (Δπ), POPG” value in series [6] stood at 4.2 mN·m^−1. The “MIC EC” value in series [7] (setting [11]) was 2 µg/mL; in [7] (setting [12]), 1.6 µM. Also, the entries for the “MIC PA” value in [8] (setting [11]) and in series [8] (setting [12]) were 1 µg/mL and 0.81 µM, respectively. The “MIC SA” value was 4 µg/mL in [9] (setting [11]) and 3.2 µM in [9] (setting [12]).

As for “Lauroyl-[Dab]T[Dab]C[Dab]F[Nle][Dab][Dab]C (disulfide 4-10 (inferred)) [spB-8, the C12/Nle7 derivative]”, in series [5], the “Increase in surface pressure (Δπ), LPS” value turned out to be 11.2 mN·m^−1. Further, in [6], the “Increase … (Δπ), POPE/POPG” value is 6.2 mN·m^−1. In series [6], the “Increase in surface pressure (Δπ), POPC” value was found to be 1.7 mN·m^−1. In addition, in series [6], the “Increase in surface pressure (Δπ), POPG” value was 3.8 mN·m^−1. Also, in the series with S. aureus, the “ultrastructural effect on S. aureus (TEM)” value is on record as “Even more disruptive effects”. Moreover, the “MIC EC” value in series [7] (setting [11]) was 4 µg/mL; in series [7] (setting [12]), 3.2 µM. For the same compound, the “MIC PA” value in series [8] (setting [11]) is 1 µg/mL; in series [8] (setting [12]), 0.79 µM. The results for the “MIC SA” value in series [9] (setting [11]) and in [9] (setting [12]) were 2 µg/mL and 1.58 µM, respectively.
